Data from patent US7112603B2, “Prodrugs of 3-(pyrrol-2-ylmethylidene)-2-indolinone derivatives” (Agouron Pharmaceuticals, Inc., priority 2000, dated 2006).

Legend:
[1] = Plasma Stability Test (IV dosing of prodrug, HPLC analysis of blood plasma); type: in vivo; details: dogs, IV at 2 mg/mL, HPLC analysis of blood plasma for 4 hours following dosing
Protocol: The prodrug (3Z)-3-[(3,5-dimethyl-1H-pyrrol-2-yl)-methylidene]-1-(1-pyrrolidinylmethyl)-1,3-dihydro-2H-indol-2-one was administered IV at 2 mg/mL to dogs. Levels of both prodrug and drug (3(Z)-3-[(3,5-dimethyl-1H-pyrrol-2-yl)-methylidene]-1,3-dihydro-2H-indol-2-one) were followed by HPLC analysis of blood plasma for 4 hours following dosing.

melting point	half-life for conversion of the prodrug to drug [1]	prodrug converted into drug (from area under the curve of drug concentration vs. time) [1]	Structure (SMILES)
193 to 196 °C	–	–	Cc1cc(C)c(/C=C2\C(=O)N(C(=O)CNC(=O)OCc3ccccc3)c3ccccc32)[nH]1
–	7.3 min	80%	Cc1cc(C)c(/C=C2\C(=O)N(CN3CCCC3)c3ccccc32)[nH]1 [Example 14, (3Z)-3-[(3,5-dimethyl-1H-pyrrol-2-yl)-methylidene]-1-(1-pyrrolidinylmethyl)-1,3-dihydro-2H-indol-2-one]
107 to 110 °C	–	–	CC(=O)OC(C)N1C(=O)/C(=C\c2[nH]c(C)cc2C)c2ccccc21 (stereo not drawn)

The remaining lines, values behind:

Structure (SMILES)	melting point	half-life for conversion of the prodrug to drug [1]	prodrug converted into drug (from area under the curve of drug concentration vs. time) [1]
Cc1cc(C)c(/C=C2\C(=O)N(COC(=O)CCC(=O)O)c3ccccc32)[nH]1	160 to 162 °C	–	–
Cc1cc(C)c(/C=C2\C(=O)N(CO)c3ccccc32)[nH]1	200 to 202 °C	–	–
